Data set [1] deals with mTORC2 pathway (Akt phosphorylation) in PC3 cells. Put plainly: Western blot, mTORC2 pathway (pAkt) in PC3 cells. Particulars: 24 hours. The data set is classed as cell-based. The essentials: (§1)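 Triton lysates analysed by Western blot for pS6K1 and pAkt, detected with IRDye 800 anti-rabbit secondary on a Li-Cor imager.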
In general terms: In western blotting, separated proteins are transferred to a membrane and probed.

Data set [2] concerns 4E-BP1 phosphorylation in PC3 cells. Put plainly: Western blot, 4E-BP1 phosphorylation in PC3 cells. The class given is cell-based. The following applies: 24 hours.
In a further data set the test system is mTORC1 over mTORC2. Description: mTORC1 selectivity over mTORC2 at 24 hrs (Western blot based pS6K1 and pAKT assay). Particulars: 24 hrs. The data set is classed as cell-based.
Data set [3] deals with pAKT (p-Akt 1/2/3 (Ser473)) in MCF-7 cells. Put plainly: AlphaLISA Ultra pAKT Assay. The data set is classed as cell-based. Particulars: Homo sapiens, 1.5 h; MCF7 cells, 90 min. The procedure:
AlphaLISA Ultra pAKT Assay
1. MCF-7 cells in Corning 3701 plate and incubate for 20˜24 hour.
16,000˜20,000 cells will be seeded in 36 μL medium per well.
2. Change the culture medium with fresh medium and incubate for another 90 minutes.
3. […]
4. Aspirate […] by HAMILTON, 10 μL rest per well.
5. Add 10 μL 2× lysis buffer using HAMILTON; total volume in wells is 20 μL. Allow cells to shake for 30 min. Cover plate by plastic foil and store plate at −80° C. up to analysis.
6. Thaw cell lysate at RT and transfer 10 ul lysate to assay plate (Optiplate-384).
7. Add 5 μL acceptor beads into assay plate and incubation for 2 hours
8. Add 5 μL donor beads and incubation for 2 hours
9. Count the plate by EnSpire Multimode Plate Reader
Background: In Alpha technology, singlet oxygen from a donor bead excites a nearby acceptor bead.

The subject of data set [4] is mTORC1 pathway (pS6K1 T389) in PC3 cells. Description: Western blot, mTORC1 pathway (pS6K1) in PC3 cells. Particulars: PC3 cells, 24 hours. The class given is cell-based. The essentials: as §1
Data set [5] deals with pS6K1 (p-p70 S6 Kinase (Thr389)) in MCF-7 cells. Put plainly: AlphaLISA Ultra pS6K1 Assay. The class given is cell-based. The following applies: Homo sapiens, 1.5 h; MCF7 cells, 90 min. The essentials: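 MCF-7 cells were seeded for 20–24 h, refed with fresh medium for 2 h, then treated with compound for 90 min at 0.5% final DMSO. Lysates were frozen at −80 °C, thawed and assayed by AlphaLISA with acceptor then donor beads, 2 h each.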

Data set [6] relates to mTORC2 (Akt phosphorylation) in TSC+/+ MEF cells. Description: Western blot, mTORC2 pathway (pAkt) in TSC+/+ MEF cells. The class given is cell-based, mouse. The following applies: 24 hours. On the procedure: (§2) The methods employed were substantially similar to those described above. Compounds were evaluated in PC3 cells, Jurkat cells, wild-type mouse embryotic fibroblast (MEF) cells, tuberous sclerosis 2 (TSC2) negative (TSC −/−) MEF cells, and tuberous sclerosis 2 (TSC2) positive (TSC +/+) MEF cells. Cells were incubated with compounds of the present invention for various time periods (e.g., 5 minutes, 15 minutes, 30 minutes, 90 minutes, 24 hours, or 48 hours), and evaluated according to known methodologies, such as those herein described.

Data set [7] has as its system mTORC1 pathway in tuberous sclerosis 2 (TSC2) positive (TSC+/+) MEF cells. Put plainly: Western blot, mTORC1 pathway in TSC+/+ MEF cells. The class given is cell-based, mouse. The following applies: 24 hours. On the procedure:
as §2

Data set [8] deals with mTORC1 pathway in tuberous sclerosis (TSC2) negative (TSC−/−) MEF cells. Put plainly: Western blot, mTORC1 pathway in TSC−/− MEF cells. The class given is cell-based, mouse. Particulars: 24 hours. On the procedure:
as §2

The nature of data set [9]: Solubility in 100 mM phosphate buffer (pH 7.4). The data set is classed as physicochemical. The following applies: pH 7.4, aqueous buffer. The text has this: The compound numbers correspond to the compound numbers in Table 1.
A further data set concerns IFN-γ production. Put plainly: IFN-γ production in allogenic mixed lymphocyte reaction. The class given is cell-based. The following applies: read-out: IFN-γ Inhibition IC50s. On the procedure: Assessment of Effect on IFN-γ Production in Allogenic Mixed Lymphocyte Reaction
The effect of rapamycin, everolimus, I-29, and I-117 on IFN-y production was evaluated in an allogenic mixed lymphocyte reaction (E.g., Eleftheriadis, T. et al., Int. J. Mol. Med., 37(5): 1412-20 (2016) https://doi.org/10.3892/ijmm.2016.2547).

A short description of data set [10]: Pharmacokinetic properties in C57Bl/6 mice. The following applies: mouse, plasma; for half-life: read-out: Terminal T1/2 (converted). The class given is in vivo. On the procedure:
Pharmacokinetic Properties
The pharmacokinetic properties of compounds of the present invention were evaluated in C57Bl/6 mice and compared with rapamycin. Animals were fasted overnight prior to administration of I-29 or rapamycin (1 mg/kg IV, 10 mg/kg PO, or 2 mg/kg IP). Animals were bled at time intervals for up to 48 hours following administration of compounds. Whole blood from each mouse was indivisually collected in polypropylene tubes and immediately centrifuged. Alloquates of the separated plasma were promptly prepared for HPCL analysis.

Data set [11] has as its system mTORC2 (Akt phosphorylation) in wild-type MEF cells. Description: Western blot, mTORC2 pathway (pAkt) in wild-type MEF cells. The following applies: 24 hours. The data set is classed as cell-based, mouse. On the procedure:
as §2

The subject of data set [12] is mTORC1 pathway in wild-type MEF cells. Put plainly: Western blot, mTORC1 pathway in wild-type MEF cells. The class given is cell-based, mouse. Particulars: 24 hours. The procedure:
as §2

This note sets out measurements from patent US11944605B2, “Rapamycin analogs and uses thereof” (Janssen Pharmaceutica NV, priority 2018, dated 2024).

pIC50: −log10 of the molar value. In brackets after ≈: the same amount, converted by molar mass. Read-outs that look alike come from different tables or passages of the source.

With `COCCOCCOC1C[C@@H]2CC[C@@H](C)[C@@](O)(O2)C(=O)C(=O)N2CCCC[C@H]2C(=O)O[C@H]([C@H](C)C[C@@H]2CC[C@@H](OCCO)[C@H](OC)C2)CC(=O)[C@H](C)/C=C(\C)[C@@H](O)[C@@H](OC)C(=O)[C@H](C)C[C@H](C)/C=C/C=C/C=C/1C` (some centres unmarked) [I-2], the “inhibition of mTORC2 (Akt phosphorylation)” value (shortened to “inhibition of mTORC2”) in [1] and in data set [6] was “do not inhibit” throughout. The “inhibition of 4E-BP1 phosphorylation” value in [2] was “no inhibition”. Moreover, in the data set on mTORC1 over mTORC2, the “mTORC1 selective @ 24 hrs” value was “YES”. Also, the pIC50 is at most 7.00 in data set [3] and 9.00 to 10.00 in data set [5]. The “inhibition of the mTORC1 pathway” value is recorded as “strong inhibition” in [4], “moderate concentration dependent inhibition” in data set [7] and “strong inhibition” in data set [8]. In data set [9], this compound returned a solubility of 30 to 60 µM (≈ 31.4 to 62.8 µg/mL).
Regarding `CO[C@@H]1C[C@H](C[C@@H](C)[C@@H]2CC(=O)[C@H](C)/C=C(\C)[C@@H](O)[C@@H](OC)C(=O)[C@H](C)C[C@H](C)/C=C/C=C/C=C(\C)[C@@H](OCCOCCO)C[C@@H]3CC[C@@H](C)[C@@](O)(O3)C(=O)C(=O)N3CCCC[C@H]3C(=O)O2)CC[C@H]1O` [I-20], the “mTORC1 selective @ 24 hrs” value in the data set on mTORC1 over mTORC2 was “YES”. The pIC50 in [3] is at most 7.00; in data set [5], 9.00 to 10.00. The “inhibition of mTORC2” value in data set [6] is listed as “do not inhibit”. Moreover, the “inhibition of the mTORC1 pathway” value in [7] is given as “moderate concentration dependent inhibition”. Moreover, in data set [9], the solubility fell in the range of 30 to 60 µM (≈ 29.6 to 59.3 µg/mL).
In the case of `CO[C@@H]1C[C@H](C[C@@H](C)[C@@H]2CC(=O)[C@H](C)/C=C(\C)[C@@H](O)[C@@H](OC)C(=O)[C@H](C)C[C@H](C)/C=C/C=C/C=C(\C)[C@@H](OCCOCCOCCO)C[C@@H]3CC[C@@H](C)[C@@](O)(O3)C(=O)C(=O)N3CCCC[C@H]3C(=O)O2)CC[C@H]1O` [I-29], the pIC50 in the data set on IFN-γ production is under 5.52. In addition, in data set [10] (1 mg/kg IV), the area under the curve AUC(0-inf) is 18400 ng·h/mL, the area under the curve AUC(0-t) came to 17600 ng·h/mL, the mean residence time (MRT inf) was found to be 15.9 h and the clearance is 0.9 mL/min/kg. Moreover, the half-life in [10] (1 mg/kg IV) is 14.7 h. Also, the Vd in data set [10] (1 mg/kg IV, read-out: Vss) was found to be 0.863 L/kg. Moreover, in data set [10] (2 mg/kg IP), the area under the curve AUC(0-inf) is 16900 ng·h/mL, the exposure AUC(0-t) was 16600 ng·h/mL, the Cmax was 2590 ng/mL and the Tmax stood at 0.25 h. In [10] (2 mg/kg IP), the half-life was 12.6 h. For the same compound, in data set [10] (10 mg/kg PO), the AUC(0-inf) turned out to be 31700 ng·h/mL, the AUC(0-t) was 31200 ng·h/mL, the Cmax was 3290 ng/mL and the Tmax was 0.25 h. The half-life in data set [10] (10 mg/kg PO) is 11 h.
Consider `CO[C@@H]1C[C@H](C[C@@H](C)[C@@H]2CC(=O)[C@H](C)/C=C(\C)[C@@H](O)[C@@H](OC)C(=O)[C@H](C)C[C@H](C)/C=C/C=C/C=C(\C)C(OCCOCCOCCOCCOCCOCCOCCOCCOCCO)C[C@@H]3CC[C@@H](C)[C@@](O)(O3)C(=O)C(=O)N3CCCC[C@H]3C(=O)O2)CC[C@H]1O` (stereo partly drawn) [I-97, (21E,23E,25E,26E,46R,47S,48R,49R,51S,53S,56S,57R,58R,67R)-57, 67-dihydroxy-55-[2-[2-[2-[2-[2-[2-[2-[2-(2-hydroxyethoxy)ethoxy]ethoxy]ethoxy]ethoxy]ethoxy]ethoxy]ethoxy]ethoxy]-56-[(1R)-2-[(1S,3R,4R)-4-hydroxy-3-methoxy-cyclohexyl]-1-methyl-ethyl]-58-methoxy-46, 47,48,49,59,60-hexamethyl-78,79-dioxa-68-azatricyclohexatriaconta-21, 23,25(59),26(60)-tetraene-61,62,63,64,65-pentone], for which the “inhibition of mTORC2” value in data set [1] and in data set [6] was “do not inhibit” in each case. Also, the “mTORC1 selective @ 24 hrs” value in the data set with mTORC1 over mTORC2 is “YES”. In data set [5], this compound showed a pIC50 of 8.00 to 9.00. Also, the “inhibition of the mTORC1 pathway” value in data set [7] is “modest concentration dependent inhibition”.
In the case of `CO[C@@H]1C[C@H](C[C@@H](C)[C@@H]2CC(=O)[C@H](C)/C=C(\C)[C@@H](O)[C@@H](OC)C(=O)[C@H](C)C[C@H](C)/C=C/C=C/C=C(\C)[C@@H](OCCOCCOCCO)C[C@@H]3CC[C@@H](C)[C@@](O)(O3)C(=O)C(=O)N3CCCC[C@H]3C(=O)O2)CC[C@H]1OCCO` [I-110, (21E,23E,25E,26E,36R,37S,38R,39R,41S,43S,45S,46S,47R,48R,57R)-47, 57-dihydroxy-45-[2-[2-(2-hydroxyethoxy)ethoxy]ethoxy]-46-[(1R)-2-[(1S,3R, 4R)-4-(2-hydroxyethoxy)-3-methoxy-cyclohexyl]-1-methyl-ethyl]-48-methoxy-36,37,38,39,49,50-hexamethyl-68, 69-dioxa-58-azatricyclohexatriaconta-21,23,25(49),26(50)-tetraene-51, 52,53,54,55-pentone], in the data set with mTORC1 over mTORC2, the “mTORC1 selective @ 24 hrs” value was “YES”. Further, the pIC50 in [5] is 9.00 to 10.00. In addition, the “inhibition of mTORC2” value in [6] was “do not inhibit”. The “inhibition of the mTORC1 pathway” value in [7] is “moderate concentration dependent inhibition”.
Regarding `CO[C@@H]1C[C@H](C[C@@H](C)[C@@H]2CC(=O)[C@H](C)/C=C(\C)[C@@H](O)[C@@H](OC)C(=O)[C@H](C)C[C@H](C)/C=C/C=C/C=C(\C)[C@@H](OCCOCCOCCOCCO)C[C@@H]3CC[C@@H](C)[C@@](O)(O3)C(=O)C(=O)N3CCCC[C@H]3C(=O)O2)CC[C@H]1OCCO` [I-115, (21E,23E,25E,26E,38R,39S,40R,41R,43S,45S,47S,48S,49R,50R,59R)-49, 59-dihydroxy-47-[2-[2-[2-(2-hydroxyethoxy)ethoxy]ethoxy]ethoxy]-48-[(1R)-2-[(1S,3R, 4R)-4-(2-hydroxyethoxy)-3-methoxy-cyclohexyl]-1-methyl-ethyl]-50-methoxy-38,39,40,41,51,52-hexamethyl-70, 71-dioxa-60-azatricyclohexatriaconta-21,23,25(51),26(52)-tetraene-53, 54,55,56,57-pentone], the “inhibition of mTORC2” value in data set [1], in data set [11] and in data set [6] was “does not inhibit” each time. Moreover, the “mTORC1 selective @ 24 hrs” value in the data set with mTORC1 over mTORC2 is reported as “YES”. Also, the “inhibition of the mTORC1 pathway” value in data set [4] is reported as “strong inhibition”; in [7], “moderate concentration dependent inhibition”; in data set [12] it was “moderate concentration dependent inhibition”. The pIC50 in data set [5] is 9.00 to 10.00.

For orientation: solubility means the concentration that dissolves in the medium under given conditions. As usually defined, the AUC(0-inf) is total exposure, with the tail of the curve extrapolated. Low values mean less exposure, high ones more exposure. As a reminder, the AUC(0-t) is exposure summed from dosing to a finite time, without extrapolation to infinity. What is called MRT inf is the average time that molecules of a dose stay in the body. As usually defined, the clearance is a measure of how efficiently the substance is removed, as volume per time. Lower therefore signals a low capacity for elimination. By Cmax is commonly meant the maximum level reached in the sampled fluid or tissue. One may read the Tmax as the time at which the peak concentration occurs.
